Measured values from patent publication US20190153024A1, “NOVEL SALTS AND POLYMORPHS OF SCY-078” (priority 2015, published 2019).

Columns and labels:
[1] = Chemical and physical stability of SCY-078 salts on storage (25° C./60% RH, 40° C./75% RH, 60° C.); format: physicochemical
From the text: For all compounds tested other than the trifluoroacetate salts (Type A and B) and the HCl Type I and II salts, the conditions and parameters used for measuring solubility are shown in Table 2A and for measuring stability are showing in Table 3A. The conditions and parameters used for the solubility of the trifluoroacetate salts (Type A and B) and the HCl Type I and II salts are shown in Table 2B and for stability are shown in Table 3B.

[2] = Kinetic solubility of SCY-078 freebase (MeOH desolvate, amorphous freebase); format: physicochemical; settings: for kinetic solubility (in words): room temperature; for Form: residual solid by XRPD
Description: Kinetic Solubility of SCY-078 Freebase: The kinetic solubility of SCY-078 MeOH desolvate and SCY-078 amorphous freebase was evaluated in SGF media, FaSSIF media, FeSSIF media, dextrose buffer (pH 5.5), phosphate buffer (pH 6.0), and phosphate buffer (pH 7.5) at room temperature. First, solid SCY-078 MeOH desolvate or SCY-078 amorphous freebase (˜15 mg) was weighed into a 4-mL vial. Then the relevant media (3.0 mL) was added and the suspensions were stirred on a rolling incubator (25 rpm) at room temperature for 1 hour, 4 hours, and 24 hours respectively. After stirring, 0.5 mL of suspension was centrifuged and filtered (0.45 μm). The residual solids were analyzed by XRPD, and the supernatant was measured by HPLC and pH meter.

[3] = Kinetic solubility of trifluoroacetate Types A and B and HCl Type I (alternative procedure: SGF, FaSSIF and FeSSIF alternative media, acetate pH 5.5, phosphate pH 6.0 alternative media); settings: residual solid by XRPD
Description: An alternative media (“FaSSIF alternative media”) was used to study the trifluoroacetate salts (Type A and B) and the HCl Type I salt. More specifically, the media was prepared by weighing 0.17 g of sodium phosphate monobasic (NaH2PO4, anhydrous), 0.021 g of sodium hydroxide, and 0.31 g of sodium chloride into a 50-mL volumetric flask and was dissolve with approximately 48 mL of purified water. The pH was adjusted to exactly 6.5 using 1 M HCl or 1 M NaOH and diluted to volume with purified water. 0.11 g of SIF powder was then added, stirred and sonicated until all the powder was completely dissolved. The solution was equilibrated for 2 hours at RT before use. The solution can be stored at RT for 48 hours or 4° C. for 7 days and should be equilibrated to RT before use
An alternative media (“FeSSIF alternative media”) was used to study the trifluoroacetate salts (Type A and B) and the HCl Type I salt. More specifically, the media was prepared by transferring 0.41 mL of glacial acid and weighing 0.20 g of sodium hydroxide, 0.59 g of sodium chloride into a 50-mL volumetric flask. This was dissolved with approximately 48 mL of purified water. The pH was adjusted to exactly 5.0 using 1 M HCl or 1 M NaOH and diluted to volume with purified water. 0.56 g of SIF powder was added, stirred and sonicated until all the powder is completely dissolved. The solution can be stored at RT for 48 hours or 4° C. for 7 days and should be equilibrated to RT before use.
Acetate Buffer (pH 5.5) Preparation—The acetate buffer (pH 5.5) used for the trifluoroacetate salts (Type A and B) and the HCl Type I salt was prepared by placing 0.60 g sodium acetate (NaC2H3O2.3H2O) in a 100-mL volumetric flask, adding 3 mL of 2 M acetic acid solution, and then adding purified water to volume.
An alternative media (“phosphate (pH 6.0) alternative media”) was used to study the trifluoroacetate salts (Type A and B) and the HCl Type I salt. More specifically, the media was prepared by dissolving 2.72 g of 0.2 M monobasic potassium phosphate (KH2PO4) in purified water, and diluting with purified water t 100 mL. 0.8 g of 0.2 M sodium hydroxide in purified water was diluted with purified water to 100 mL. Then 50 mL of the 0.2 M monobasic potassium phosphate solution was placed in a 200-mL volumetric flask, 5.6 mL of 0.2 M sodium hydroxide solution was added, and then purified water was added to volume.
The trifluoroacetate salts (Type A and B) and the HCl Type I salt were tested using the following alternative procedure. First, 15 mg, 36 mg or 90 mg solid was weighted into a 4-mL plastic tube, and 3 mL of relevant media was added before leaving the suspension on a rolling incubator (25 r/min). For SCF, 90 mg of solid was used. For FaSSIF, acetate buffer (pH 5.5), and phosphate buffer (pH 6.0), 15 mg solid was used. For FeSSIF, 36 mg of solid was used. 1.0 mL aliquot of the suspension was sampled for centrifugation with the supernatant submitted for HPLC and pH measurement and solid for XRPD characterization at 1 hr, 4 hr and/or 24 hrs.
The solubility of trifluoroacetate Type A, Type B and HCl Type I was measured in SGF at ambient temperature. Approximately 90 mg of solid sample was weighted into a 4-mL centrifuge tube, and 3 mL of SGF buffer was added before leaving the suspension on a rolling incubator (25 r/min). 1.0 mL aliquot of the suspension was sampled for centrifugation (10000 rpm, 3 mins) the supernatant was analyzed by HPLC and pH measurement and solid by XRPD characterization at 1 hr, 4 hr and 24 hrs, respectively.
The solubility of trifluoroacetate Type A, Type B and hydrochloride Type I was measured in the FaSSIF alternative media at ambient temperature. Approximately 15 mg of solid sample was weighted into a 4-mL plastic tube, and 3 mL of the media was added before leaving the suspension on a rolling incubator (25 r/min).

[4] = Physical and chemical stability of trifluoroacetate Types A and B and HCl Type I for 1, 2, 4 and 8 weeks; format: physicochemical
Description: High Power Liquid Chromatography (HPLC) Method—An Agilent 1260 HPLC with DAD detector was utilized to test solubility or to test purity and stability. […] System suitability was tested by injecting standard solutions five times in each sample sequence, and the relative standard deviation of the peak areas was less than 2%.
Physical and chemical stability evaluation of trifluoroacetate Type A, trifluoroacetate Type B, and HCl Type I was performed at 25° C./60% RH, 40° C./75% RH and 60° C. for 1, 2, 4 and 8 weeks. In the experiments, approximately 20 mg of solid was placed into a 1.5-mL glass vial. The vials were stored under 25° C./60% RH (uncapped), 40° C./75% RH (uncapped) and 60° C. (capped) conditions for 8 weeks. XRPD analysis was then employed to check the crystalline form of the solid, and HPLC was utilized to determine the purity profile at 1, 2, 4 and 8 weeks. […] The solid form change of trifluoroacetate Type A at 2 and 4 weeks was postulated to the air-exposure when the sample was taken out for XRPD characterization.

[5] = 25° C./60% RH, open dish, 4 days
[6] = 25° C./60% RH (uncapped), 1 week
[7] = 25° C./60% RH (uncapped), 2 weeks
[8] = 25° C./60% RH (uncapped), 4 weeks
[9] = 25° C./60% RH (uncapped), 8 weeks
[10] = 40° C./75% RH (uncapped), 1 week
[11] = 40° C./75% RH (uncapped), 2 weeks
[12] = 40° C./75% RH (uncapped), 4 weeks
[13] = 40° C./75% RH (uncapped), 8 weeks

CC(C)[C@@H](C)[C@@]1(C)CC[C@]2(C)[C@H]3CC[C@@H]4[C@@]5(COC[C@]4(C)[C@@H](OC[C@](C)(N)C(C)(C)C)[C@H](n4ncnc4-c4ccncc4)C5)C3=CC[C@@]2(C)[C@@H]1C(=O)O.O=C(O)CC(O)(CC(=O)O)C(=O)O [Type S]
0.10%: Impurity % by HPLC ([1]; Initial)
0.11%: Impurity % by HPLC ([1]; 60° C., closed dish, 1 week)
Type S: Solid form ([1]; 60° C. closed, 1 week)
Type S**: Solid form ([1]; 25° C./60% RH, open dish, 1 week, **Peak shifts were observed) | Solid form ([1]; 40° C./75% RH, open dish, 1 week, **Peak shifts were observed)
0.03%: Impurity % by HPLC ([1]; 25° C./60% RH, open dish, 1 week) | Impurity % by HPLC ([1]; 40° C./75% RH, open dish, 1 week)

CC(C)[C@@H](C)[C@@]1(C)CC[C@]2(C)[C@H]3CC[C@@H]4[C@@]5(COC[C@]4(C)[C@@H](OC[C@](C)(N)C(C)(C)C)[C@H](n4ncnc4-c4ccncc4)C5)C3=CC[C@@]2(C)[C@@H]1C(=O)O [SCY-078 MeOH desolvate]
only sparingly soluble: kinetic solubility (in words) ([2]; FaSSIF and pH 5.5, pH 6.0, pH 7.5 buffers)
high solubility: kinetic solubility (in words) ([2]; SGF and FeSSIF)
Solid form change was observed: solid form change during solubility measurement ([2]; FeSSIF, FaSSIF, pH 5.5 and 6.0 buffers)

CC(C)[C@@H](C)[C@@]1(C)CC[C@]2(C)[C@H]3CC[C@@H]4[C@@]5(COC[C@]4(C)[C@@H](OC[C@](C)(N)C(C)(C)C)[C@H](n4ncnc4-c4ccncc4)C5)C3=CC[C@@]2(C)[C@@H]1C(=O)O [Amorph.]
Amorph,: Form ([2]; pH 6.0 buffer, 24 hours)
Amorph.: Form ([2]; FaSSIF, 1 hour) | Form ([2]; FaSSIF, 4 hours) | Form ([2]; FaSSIF, 24 hours) | Form ([2]; FeSSIF, 1 hour) | Form ([2]; FeSSIF, 4 hours) | Form ([2]; FeSSIF, 24 hours) | Form ([2]; pH 5.5 buffer, 4 hours) | Form ([2]; pH 5.5 buffer, 24 hours) | Form ([2]; pH 6.0 buffer, 4 hours) | Form ([2]; pH 7.5 buffer, 4 hours) | Form ([2]; pH 7.5 buffer, 24 hours)

CC(C)[C@@H](C)[C@@]1(C)CC[C@]2(C)[C@H]3CC[C@@H]4[C@@]5(COC[C@]4(C)[C@@H](OC[C@](C)(N)C(C)(C)C)[C@H](n4ncnc4-c4ccncc4)C5)C3=CC[C@@]2(C)[C@@H]1C(=O)O [Desolv.]
NF 2: Form ([2]; pH 5.5 buffer, 4 hours) | Form ([2]; pH 5.5 buffer, 24 hours)
NF 3: Form ([2]; pH 6.0 buffer, 24 hours)
NF 1: Form ([2]; FaSSIF, 1 hour) | Form ([2]; FaSSIF, 4 hours) | Form ([2]; FaSSIF, 24 hours) | Form ([2]; FeSSIF, 1 hour) | Form ([2]; FeSSIF, 4 hours) | Form ([2]; FeSSIF, 24 hours) | Form ([2]; pH 6.0 buffer, 4 hours)
Desolv.: Form ([2]; pH 7.5 buffer, 4 hours) | Form ([2]; pH 7.5 buffer, 24 hours)

CC(C)[C@@H](C)[C@@]1(C)CC[C@]2(C)[C@H]3CC[C@@H]4[C@@]5(COC[C@]4(C)[C@@H](OC[C@](C)(N)C(C)(C)C)[C@H](n4ncnc4-c4ccncc4)C5)C3=CC[C@@]2(C)[C@@H]1C(=O)O.O=C(O)CC(O)(CC(=O)O)C(=O)O [Type M]
0.42%: Impurity % by HPLC ([1]; Initial)
Type M: Solid form [1, 5] | Solid form ([1]; 60° C. closed, 4 days)
0.00%: Impurity % by HPLC ([1]; 40° C./75% RH, open dish, 4 days)
Type M*: Solid form ([1]; 40° C./75% RH, open dish, 4 days, *One peak change was observed)
0.39%: Impurity % by HPLC [1, 5]
0.63%: Impurity % by HPLC ([1]; 60° C. closed, 4 days)

CC(C)[C@@H](C)[C@@]1(C)CC[C@]2(C)[C@H]3CC[C@@H]4[C@@]5(COC[C@]4(C)[C@@H](OC[C@](C)(N)C(C)(C)C)[C@H](n4ncnc4-c4ccncc4)C5)C3=CC[C@@]2(C)[C@@H]1C(=O)O.O=C(O)C(F)(F)F [TFA Type A]
Type A + B: Solid form [4, 8] | Solid form [4, 12] | Solid form ([4]; 60° C. (capped), 4 weeks)
Type B: Solid form [4, 7] | Solid form [4, 11] | Solid form ([4]; 60° C. (capped), 2 weeks)
99.9%: HPLC purity [4, 6] | HPLC purity [4, 7] | HPLC purity [4, 8] | HPLC purity [4, 9] | HPLC purity [4, 10] | HPLC purity [4, 11] | HPLC purity [4, 12] | HPLC purity [4, 13] | HPLC purity ([4]; 60° C. (capped), 1 week) | HPLC purity ([4]; 60° C. (capped), 2 weeks) | HPLC purity ([4]; 60° C. (capped), 4 weeks) | HPLC purity ([4]; 60° C. (capped), 8 weeks) | Initial HPLC purity ([4]; Initial)
No: Form change ([3]; FaSSIF alternative media, 1 hr) | Form change ([3]; FaSSIF alternative media, 4 hrs) | Form change ([3]; FaSSIF alternative media, 24 hrs) | Form change ([3]; SGF, 1 hr) | Form change ([3]; SGF, 4 hrs) | Form change ([3]; SGF, 24 hrs) | Form change ([3]; acetate buffer (pH 5.5), 4 hrs) | Form change ([3]; acetate buffer (pH 5.5), 24 hrs)
Type A: Solid form [4, 6] | Solid form ([4]; 25° C./60% RH (uncapped), 6 weeks) | Solid form [4, 9] | Solid form [4, 10] | Solid form ([4]; 40° C./75% RH (uncapped), 6 weeks) | Solid form [4, 13] | Solid form ([4]; 60° C. (capped), 1 week) | Solid form ([4]; 60° C. (capped), 6 weeks) | Solid form ([4]; 60° C. (capped), 8 weeks)
